“And” between values parts separate entries of the source, which are not always exact repeats. Identical values can stand only once. Peptide text beside a SMILES is read from it.
Tested on: PC12 cells
Assay: Dopamine release from PC12 cells after dipeptide addition (LC-MS/MS of supernatant)
Format: cell-based
Settings: 6 hours; for Change in dopamine concentration compared to the non-stimulated group / Dopamine concentration after stimulation, Mean ± Standard deviation / Percentage relative to non-stimulated group: 1 mM dipeptide; for Change in dopamine concentration compared to the non-stimulated group: Student's t-test, significance level 5%; for Dopamine concentration after stimulation, Mean ± Standard deviation: 3 wells; for Dopamine concentration after stimulation, Mean ± Standard deviation / Dopamine concentration after stimulation: 37° C., supernatant; for Percentage relative to non-stimulated group: dopamine concentration, non-stimulated group = 100; for Dopamine concentration after stimulation: individual wells, 1 mM dipeptide in medium
Experimental: PC12 cells were seeded in a 96-well plate at a cell count of 2×10^4 cells/well using DMEM containing 10% by volume of HS (Horse Serum), 10% by volume of FBS (Fetal Bovine Serum), 100 units/mL of penicillin and 100 μg/mL of streptomycin. The cells were cultured at 5% CO2 by volume and 37° C. The cells were cultured for 3 to 5 days to ensure that they were confluent, and then used for experiments.
The culture medium was removed from PC12 cells, which were washed twice with PBS (Phosphate Buffered Saline). The wells of the 96-well plate were divided into 5 groups: non-stimulated group (5 wells), WF administration group (3 wells), WH administration group (3 wells), WM administration group (3 wells) and WR administration group (3 wells). The WR administration group corresponds to Inventive Example, and the non-stimulated group, WF administration group, WH administration group and WM administration group correspond to Comparative Examples.
DMSO (Dimethyl Sulfoxide) was added to the same medium as the medium used to culture PC12 cells, thereby preparing a medium containing 1% by […] of DMSO. Dipeptide WF was added to the same medium as the medium used to culture PC12 cells, thereby preparing a medium containing 1 mM dipeptide WF. In the same way, a medium containing 1 mM dipeptide WH, a medium containing 1 mM dipeptide WM and a medium containing 1 mM dipeptide WR were prepared. The medium containing 1% by volume of DMSO (Dimethyl Sulfoxide) was added to the non-stimulated group, the medium containing 1 mM dipeptide WF was added to the WF administration group, the medium containing 1 mM dipeptide WH was added to the WH administration group, the medium containing 1 mM dipeptide WM was added to the WM administration group, and the medium containing 1 mM dipeptide WR was added to the WR administration group. These groups were incubated at 37° C. for 6 hours. After the incubation, supernatant of each well was collected.
Each supernatant was transferred onto ice. To each supernatant, 25 μL of 2M perchloric acid was added for protein removal, and after 10 minutes, 50 μL of 1M sodium acetate was added for neutralization. After 15 minutes, centrifugation was performed at 4° C. and 20000 G for 20 minutes. 100 μL of each supernatant was collected, and after added with 10 μL of 2 mM 3,4-dihydroxybenzylamine (DHBA) as an internal standard, it was passed through a chromatodisk to obtain a sample. The obtained sample was used for liquid chromatography-tandem mass spectrometry (LC-MS/MS).
LC-MS/MS was performed using a Triple TOF 6600+ system manufactured by SCIEX under the following measurement conditions. A calibration curve was prepared using pure products, and after correcting the peak area of dopamine with the peak area of the internal standard (DHBA), the dopamine concentration (nM) in each sample was calculated from the calibration curve. • Equipment: Triple TOF 6600+ System (SCIEX, Massachusetts, USA) • Column: Inertsil (registered trademark) ODS-4 (GL Sciences, Tokyo, Japan) • Eluent A: 0.1% aqueous solution of formic acid • Eluent B: 0.1% methanol solution of formic acid • Gradient conditions: As listed in Table 1
Data are presented as mean±standard deviation. For statistical processing, Student's t-test was used for comparisons between the non-stimulated group and each administration group. The significance level was set at 5%.

## N[C@@H](Cc1c[nH]c2ccccc12)C(=O)N[C@@H](Cc1ccccc1)C(=O)O [WF, tryptophanylphenylalanine] (H-Trp-Phe-OH)
  Change in dopamine concentration compared to the non-stimulated group: did not exhibit such a significant increase in dopamine concentration
  Dopamine concentration after stimulation, Mean ± Standard deviation: 19.56 ± 1.35 nM
  Percentage relative to non-stimulated group: 83.23%
  Dopamine concentration after stimulation: 18.97 nM and 18.60 nM and 21.10 nM

## N[C@@H](Cc1c[nH]c2ccccc12)C(=O)N[C@@H](Cc1c[nH]cn1)C(=O)O [WH, tryptophanylhistidine] (H-Trp-His-OH)
  Change in dopamine concentration compared to the non-stimulated group: did not exhibit such a significant increase in dopamine concentration
  Dopamine concentration after stimulation, Mean ± Standard deviation: 22.15 ± 4.13 nM
  Percentage relative to non-stimulated group: 94.26%
  Dopamine concentration after stimulation: 26.89 nM and 19.36 nM and 20.20 nM

## CSCC[C@H](NC(=O)[C@@H](N)Cc1c[nH]c2ccccc12)C(=O)O [WM, tryptophanylmethionine] (H-Trp-Met-OH)
  Change in dopamine concentration compared to the non-stimulated group: did not exhibit such a significant increase in dopamine concentration
  Dopamine concentration after stimulation, Mean ± Standard deviation: 24.57 ± 7.88 nM
  Percentage relative to non-stimulated group: 104.55%
  Dopamine concentration after stimulation: 20.58 nM and 19.48 nM and 33.64 nM

## N=C(N)NCCC[C@H](NC(=O)[C@@H](N)Cc1c[nH]c2ccccc12)C(=O)O [WR, tryptophanylarginine] (H-Trp-Arg-OH)
  Change in dopamine concentration compared to the non-stimulated group: significant increase in dopamine concentration
  Dopamine concentration after stimulation, Mean ± Standard deviation: 36.24 ± 2.10 nM
  Percentage relative to non-stimulated group: 154.23%
  Dopamine concentration after stimulation: 38.47 nM and 34.30 nM and 35.95 nM

— patent US20260263418A1, “AGENTS FOR ENHANCING DOPAMINE RELEASE, IMPROVING MOTOR CONTROL FUNCTION, IMPROVING MOTOR LEARNING FUNCTION AND IMPROVING ACTIVITY MOTIVATION” (MEIJI CO., LTD., priority 2023, published 2026)
